This note sets out measurements from publication PMC5465288, “[^68Ga]/[^188Re] Complexed [CDTMP] Trans-1,2-Cyclohexyldinitrilotetraphosphonic Acid As a Theranostic Agent for Skeletal Metastases” (Frontiers in Medicine, 2017).

The nature of this assay: HAp (hydroxyapatite) binding study. Particulars: 20 mg synthetic HAp in 1 mL saline, 10 min incubation at ambient temperature. The method, then:
To evaluate HAp binding, 20 mg of synthetic HAp was allowed to incubate in 1 mL of isotonic saline for 24 h. Labeled complex in a volume of 50 µL was then added, subjected to vortex for 10 s and incubated at ambient temperature for 10 min. After incubation, samples had been centrifuged, and the supernatant was removed. Hap fraction was washed twice with 0.5 mL saline, and all the washes were collected. Radioactivity was then checked in combined liquids and HAp fraction using gamma counter.

As for “[^68Ga]-trans-1,2-cyclohexyldinitrilo tetramethylene phosphonic acid [[^68Ga]-CDTMP]”, the “binding to HAp” value is 89 ± 3%.
